In PubChem BioAssay (NCI):
“And” between values parts separate entries of the source, which are not always exact repeats. Equal values may be shown once.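 Cultured in 96-well plates, cells were exposed to test compound for 48 hours across five concentrations. At the GI50, growth is halved. Definition used: TGI = concentration required for complete inhibition of growth.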

Assays:
Assay in all cases: DTP human tumour cell line panel, 48 h
MDA-MB-435 = test system: MDA-MB-435
T-47D breast = test system: T-47D breast
DLD-1 colon = test system: DLD-1 colon
DMS 273 small cell lung = test system: DMS 273 small cell lung
LXFL 529 NSCLC = test system: LXFL 529 NSCLC
RXF-631 renal = test system: RXF-631 renal
SNB-78 CNS = test system: SNB-78 CNS
XF 498 CNS = test system: XF 498 CNS
MDA-N = test system: MDA-N

| Structure (SMILES) | GI50 (MDA-MB-435) | TGI (MDA-MB-435) | GI50 (T-47D breast) | TGI (T-47D breast) | TGI (DLD-1 colon) [µM] | TGI (LXFL 529 NSCLC) [µM] | also measured |
| --- | --- | --- | --- | --- | --- | --- | --- |
| OC(CNC1CCCC1)Cn1c2ccccc2c2ccccc21 (stereo not drawn) | > 100 µM | > 100 µM | 33.9 µM | > 100 µM | – | – | – |
| C=C(C)[C@H](O)C(O)CC(C)[C@@H]1CCC23CC12CCC1[C@@]2(C)CCC(OC(C)=O)C(C)(C)C2CC(OC2OC(COC(C)=O)C(O)C(O)C2O)[C@]13C (stereo partly drawn) | – | – | – | – | 11.2 | 10.9 | TGI (DMS 273 small cell lung): 11.4 µM; TGI (RXF-631 renal): 12 µM; TGI (SNB-78 CNS): 14.2 µM |
| Cc1cccc2c1C/C(=C1\CCc3c(C)cccc31)C2=O | – | – | – | – | > 100 | > 100 | TGI (DMS 273 small cell lung): > 100 µM; TGI (RXF-631 renal): > 100 µM |
| CN(C)CCNC(=O)c1cc2c3ccccc3[nH]c2c2ncccc12 | 2.89 µM | 15.4 µM | 18.4 µM | > 100 µM | – | – | – |
| CCOc1ccccc1NC(=O)C1=C(C)NC(C)=C(C(=O)Nc2ccccc2OCC)C1c1ccc(NC(C)=O)cc1 | – | – | – | – | > 100 | > 100 | TGI (SNB-78 CNS): > 100 µM; TGI (XF 498 CNS): 43.5 µM |
| CCOC(=O)NC(=O)c1cn(CCN2CCN(C(=O)NCCCCCCNC(=O)N3CCN(CCn4cc(C(=O)NC(=O)OCC)c(=O)n(CCN(CC)CC)c4=O)CC3)CC2)c(=O)n(CCC(CC)CC)c1=O | – | – | – | – | > 100 | > 100 | TGI (DMS 273 small cell lung): > 100 µM; TGI (SNB-78 CNS): > 100 µM |
| CCOC(=O)C#Cc1c(CC(=O)OCC)nnn1[C@H]1O[C@@H](CO)[C@@H]2OC(C)(C)O[C@@H]21 | 5.4 µM | 18.3 µM | 2.78 µM | 7.55 µM | – | – | – |
| COc1cc(-c2oc3c(OC)c(O)c(OC)c(O)c3c(=O)c2OC)ccc1O | – | 49.1 µM | – | 67.1 µM | – | – | TGI (MDA-N): > 100 µM |
| C[CH2][Sn]([CH2]C)([O]C(=O)c1cccc(F)c1)[O][Sn]([CH2]C)([CH2]C)[O]C(=O)c1cccc(F)c1 | – | – | – | – | 26.1 | 22.4 | GI50 (DLD-1 colon): 12.5 µM; GI50 (DMS 273 small cell lung): 32 µM; TGI (DMS 273 small cell lung): > 100 µM; GI50 (LXFL 529 NSCLC): 10.4 µM; GI50 (SNB-78 CNS): 16.3 µM; TGI (SNB-78 CNS): 35.1 µM; GI50 (XF 498 CNS): 16.2 µM; TGI (XF 498 CNS): 29.8 µM |
| c1ccc2c3c([nH]c2c1)C1(CCCCC1)c1c([nH]c2ccccc12)C31CCCCC1 | – | – | – | – | > 100 | > 100 | TGI (DMS 273 small cell lung): 59 µM; TGI (SNB-78 CNS): 45.4 µM; TGI (XF 498 CNS): > 100 µM |
| N#C[S-].[Au+].c1ccc(CN2[CH-]N(Cc3ccccc3)C(c3ccccc3)=C2c2ccccc2)cc1 | 0.492 µM | 1.74 µM | – | – | – | – | – |
| O=C1C(=O)c2ccccc2C(O)=C1CCCCCCCCC1CCCCC1 | – | 17.2 µM | – | 21.5 µM | – | – | TGI (MDA-N): 17.9 µM |
| CC(C)C[C@@H]1NC(=O)[C@@H]2CCCN2C(=O)[C@@H]2CCCN2C(=O)[C@H](CC(C)C)NC(=O)[C@H](CO)NC(=O)[C@H](CCCCN)NC(=O)[C@H]([C@H](C)O)NC(=O)[C@@H]2CCCC[C@@H](NC1=O)C(=O)N[C@@H](Cc1ccccc1)C(=O)N1CCC[C@H]1C(=O)N[C@@H](CC(=O)O)C(=O)NCC(=O)N[C@@H](CCCN=C(N)N)C(=O)N2 | > 50 µM | > 50 µM | > 50 µM | > 50 µM | – | – | – |
| Cc1ccc(S(=O)(=O)Nc2nc3ccccc3nc2Nc2ccc3nsnc3c2)cc1 | 4.09 µM and 3.15 µM | > 100 µM | 3.34 µM and 3.47 µM | > 100 µM | – | – | – |
| CCCCCN(CCCCC)CC(O)c1cc2c(c3ccccc13)CCCC2 (stereo not drawn) | 7.68 µM and 13.2 µM | 21.9 µM and 36.5 µM | 3.04 µM and 7.77 µM | 14.2 µM and 25.7 µM | – | – | – |
| Cc1cc(=O)oc2cc(OCc3nc4ccccc4c(=O)[nH]3)ccc12 | – | – | – | – | > 100 | > 100 | TGI (DMS 273 small cell lung): > 100 µM; TGI (XF 498 CNS): > 100 µM |
| CN1CCn2c(c(Sc3ccc(C(=O)NO)cc3)c3ccccc32)C1=O | – | – | 1.53 µM | 3.91 µM | – | – | – |

| Structure (SMILES) | GI50 (MDA-MB-435) | TGI (MDA-MB-435) | GI50 (T-47D breast) | TGI (T-47D breast) | TGI (DLD-1 colon) [µM] | TGI (LXFL 529 NSCLC) [µM] | also measured |
| --- | --- | --- | --- | --- | --- | --- | --- |
| Clc1ccc2c(c1)-c1ccccc1C1=NCCN12 | 2.04 µM | 5.76 µM | 2.73 µM | 8.27 µM | – | – | – |
| Cc1cccc2c1C(=O)OC2(C)c1cccc2ccccc12 (stereo not drawn) | – | – | – | – | > 100 | – | TGI (SNB-78 CNS): > 100 µM; TGI (XF 498 CNS): 86 µM |
| NC(CCSC(F)F)C(=O)O (stereo not drawn) | – | – | – | – | > 100 | > 100 | TGI (DMS 273 small cell lung): > 100 µM; TGI (SNB-78 CNS): > 100 µM; TGI (XF 498 CNS): > 100 µM |
| O=C(CN1C(=O)c2ccccc2C1=O)C(O)CN1C(=O)c2ccccc2C1=O (stereo not drawn) | – | > 100 µM | – | > 100 µM | – | – | TGI (MDA-N): > 100 µM |
| N#Cc1nc2cc(F)c(F)cc2nc1-c1ccc(Cl)cc1 | 17.5 µM | 39.1 µM | 20.9 µM | > 62.1 µM | – | – | – |
| Oc1ccc(N=Nc2ccc(N=Nc3ccccc3)cc2)cc1 | 2.96 µM | 14.7 µM | 1.61 µM | 6.73 µM | – | – | – |
| Cc1ccc(/C=C2\CCCC\C2=N\O)cc1 | – | – | – | – | > 100 | > 100 | TGI (DMS 273 small cell lung): > 100 µM; TGI (SNB-78 CNS): > 100 µM; TGI (XF 498 CNS): > 100 µM |
| C[C@@H]1C[C@@]2(O[C@@H]2C)C(=O)O[C@@H]2CCN3CC=C(COC(=O)[C@]1(C)O)[C@H]23 | – | > 100 µM | – | > 100 µM | – | – | TGI (MDA-N): > 100 µM |
| Clc1nc(Cl)c(Cc2ccccc2)c(Cl)n1 | – | 19 µM | – | 42.4 µM | – | – | TGI (MDA-N): 12.5 µM |
| CSC1C(=O)c2ccccc2/C(=N/Nc2nc3ccccc3s2)C1C (stereo not drawn) | 9.38 µM | 19.8 µM | 8.65 µM | > 50 µM | – | – | – |
| COc1cc([N+](=O)[O-])c(OC)cc1-c1nc2sc(Cl)cn2c1/C=N/NC(=N)N/N=C/c1c(-c2cc(OC)c([N+](=O)[O-])cc2OC)nc2sc(Cl)cn12 | – | – | 1.98 µM | 5.07 µM | – | – | – |
| CC(=O)c1c[nH]cc1CO | – | – | – | > 10 µM | – | – | TGI (MDA-N): > 10 µM |
| c1ccc(SC(CCCCOC2CCCCO2)Sc2ccccc2)cc1 (stereo not drawn) | – | – | – | – | > 100 | > 100 | TGI (DMS 273 small cell lung): > 100 µM; TGI (SNB-78 CNS): > 100 µM; TGI (XF 498 CNS): > 100 µM |
| Cc1nn(-c2nc3ccccc3[nH]2)c2c1C(c1ccc3c(c1)OCO3)CC(=O)N2 (stereo not drawn) | 2.46 µM | 6.3 µM | 3.61 µM | > 39.6 µM | – | – | – |
| NCCCCN(Cc1nc2ccccc2[nH]1)[C@H]1CCCc2cccnc21 | 17.4 µM | 54.6 µM | 21.4 µM | > 100 µM | – | – | – |
| C/C(=N\O)C(CN1CCCCC1)C(c1ccccc1)c1c(O)c2ccccc2oc1=O (stereo not drawn) | – | – | – | – | > 100 | > 100 | TGI (XF 498 CNS): > 100 µM |
